Experimental findings from article PMC8762250, “Identification of Novel Chemical Scaffolds that Inhibit the Growth of Mycobacterium tuberculosis in Macrophages” (Frontiers in Pharmacology, 2022) are described below.

Like-named read-outs stand apart in the source and are kept apart here. Marks after values point to notes of the source that are not given here.

Series [1] deals with M. tuberculosis. Description: High content assay of intracellular M. tuberculosis growth in infected RAW264.7 macrophages. Format: cell-based, Mycobacterium tuberculosis H37Rv-LP. The procedure: Compounds were obtained in 384-well plates as 10 mM DMSO stock solutions and tested as described ([Manning et al., 2017]). Briefly, assay plates were prepared in clear bottom, black 384-well plates with 30 μl cRPMI and 0.6 μl compound in columns 3–22 (final concentration of 10 μM compound, 1% DMSO). […] INH and STA were also included in dose response on each plate. RAW264.7 cells were infected with M. tuberculosis DREAM8 as described ([Manning et al., 2017]) at an MOI of 1 for 24 h and extracellular bacteria removed by washing. Cells were recovered using Accumax, harvested, washed and resuspended in serum-free RPMI; 30 μl of infected cells were dispensed into each well at 3,300 cells/well. Plates were incubated for 72 h, 10 μl of 5X SYBR Green I was added and plates were imaged with an ImageXpress Micro High Content Screening System (Molecular Devices) using a ×4 objective and FITC and Texas Red channels. MetaXpress was used to analyze images. The integrated intensity of M. tuberculosis or macrophages was calculated for each well. Growth inhibition was calculated for each test well by normalizing to the average integrated intensity of the DMSO control wells. IC50 was calculated as the compound concentration required to reduce bacterial growth by 50%. TC50 was calculated as the compound concentration required to reduce macrophage viability by 50%.

A short description of series [2]: HepG2 cytotoxicity (CellTiter-Glo, 72 h). The settings on record: human. Format: cell-based, human. The method, then: (§1) Cytotoxicity against HepG2 cells was measured after 72 h. Cells were seeded in 384-well plates at 1,800 cells per well. Compounds were added as a 10-point three-fold serial dilution after 24 h (final assay concentration of 1% DMSO). CellTiter-Glo® reagent (Promega) was added and relative luminescence units (RLU) measured. Data were normalized to the DMSO controls. Curves were fitted using the Levenberg–Marquardt algorithm; TC50 was calculated as the compound concentration required to reduce cell viability by 50%.
(§2) We further evaluated cytotoxicity using the HepG2 cell line cultured with either glucose or galactose in the medium (Table 2). HepG2 cells cultured with galactose rely on mitochondrial oxidative phosphorylation rather than glycolysis which increases their susceptibility to mitochondrial toxicants allowing us to identify compounds with mitochondrial toxicity ([Kamalian et al., 2015]).

Series [3] deals with M. tuberculosis. Description: Minimum inhibitory concentration in liquid medium (axenic culture). Format: cell-based, Mycobacterium tuberculosis. The settings on record: Mycobacterium tuberculosis; for IC50: read-out: Anti-tubercular activity in axenic culture IC50.
A further series has as its system RAW264.7 cells. The series is described as follows: Macrophage viability in the same high content assay. The settings on record: infected RAW264.7 macrophages; for Intracellular RAW TC50: SAR tables 4-8; for Intracellular activity Cytotoxicity TC50: 72 h.
The test system of the next series is HepG2 cells. Description: HepG2 cytotoxicity (CellTiter-Glo, 72 h). Type of series: cell-based, human. The settings on record: for HepG2 cytotoxicity TC50 Galactose / HepG2 cytotoxicity TC50 Glucose: human, 72 h. The procedure: as §1, §2
[4] abbreviates: Mycobacterium tuberculosis, RAW264.7, in RAW264.7 macrophages, SAR tables 4-8, read-out: Intracellular Mtb IC50.
Where [5] appears, read: HepG2 cytotoxicity IC50 Galactose.
The mark [6] stands for this setting: HepG2 cytotoxicity IC50 Glucose.
Setting [7] is: axenic culture, SAR tables 4-8, read-out: Extracellular IC90.
Setting [8] is: 120 h, extracellular, 5 days, OD590.
Where [9] appears, read: 120 h, extracellular, 5 days, OD590, read-out: Anti-tubercular activity in axenic culture IC90.

Broadly, the IC50 is the point on the concentration scale where inhibition reaches its midpoint. What is called IC90 is the concentration needed for an effect of 90%. For `COCc1cc(C)nc2sc(C(=O)c3ccccc3)c(N)c12` [TPN-0073023], the IC50 in the series with M. tuberculosis [1] (setting [4]) was found to be 17 ± 6.5 µM. Moreover, the half-inhibitory concentration (IC50) at 72 h in series [2] (setting [5]) was 49 µM; in series [2] (setting [6]), 68 ± 1 µM. In addition, in the series with M. tuberculosis [3] (setting [7]), the IC90 is above 20 µM. The “Intracellular RAW TC50” value with RAW264.7 cells is recorded as 67 ± 18 ^d µM.
Regarding `Nc1c(C(=O)N2CCCCC2)sc2nc3c(cc12)CCCC3` [TPN-0073024], in the series on M. tuberculosis [1] (setting [4]), the 50% inhibitory concentration (IC50) stood at 62 ± 31 µM. Besides, the IC50 at 72 h in series [2] (setting [5]) and in series [2] (setting [6]) was above 100 µM each time. The IC90 with M. tuberculosis [3] (setting [7]) is above 20 µM. The “Intracellular RAW TC50” value in the series with RAW264.7 cells is >100 ^b µM.
`CCN(CC)C(=O)c1sc2nc(-c3ccccc3)ccc2c1N` [TPN-0073025]: the “activity against intracellular M. tuberculosis” value in the series on M. tuberculosis [1] was “weak activity”. Moreover, the IC50 in the series on M. tuberculosis [1] (setting [4]) is below 10 µM; with M. tuberculosis [1] (in RAW264.7 macrophages, SAR tables 4-8, read-out: Intracellular Mtb IC50), 9 ± 6.6 µM. In addition, the IC50 at 72 h was determined as 42 µM in series [2] (setting [5]) and 61 ± 48 µM in series [2] (setting [6]). Further, the IC90 with M. tuberculosis [3] (setting [7]) is above 20 µM. In addition, the “Intracellular RAW TC50” value with RAW264.7 cells was 30 ± 6.6 ^f µM.
In the case of `Nc1c(C(=O)c2ccc(F)cc2)sc2nc(-c3ccccc3)cc(-c3ccccc3)c12` [TPN-0073026], in the series on M. tuberculosis [1], the “activity against intracellular M. tuberculosis” value is “not active”. For the same compound, in the series with M. tuberculosis [1] (setting [4]), the IC50 was above 100 µM. Also, the IC50 at 72 h in series [2] (setting [5]) and in series [2] (setting [6]) was above 100 µM each time. Moreover, in the series on M. tuberculosis [3] (setting [7]), the 90% effect concentration (IC90) was above 20 µM. Besides, the “Intracellular RAW TC50” value with RAW264.7 cells is >100 ^a µM.
Regarding `Nc1c(C(=O)Nc2nccs2)sc2nc3c(cc12)CCC3` [TPN-0073030], in the series with M. tuberculosis [1] (Mycobacterium tuberculosis, RAW264.7, read-out: Intracellular Mtb IC50, in RAW264.7 macrophages, SAR tables 4-8), the IC50 is 1.1 µM. Further, the IC50 at 72 h in series [2] (setting [5]) and in series [2] (setting [6]) was above 100 µM in each case. Besides, the IC90 in the series on M. tuberculosis [3] (setting [7]) is above 20 µM. For the same compound, the “Intracellular RAW TC50” value in the series on RAW264.7 cells is >100 ^c µM.
As for `O=C(Nc1ccc(C(F)(F)F)cc1)Nc1cccc(Cl)c1` [TPN-0073070], the IC50 in the series on M. tuberculosis [1] (setting [4]) is 0.7 ± 0.2 µM. Besides, the IC50 at 72 h in series [2] (setting [5]) worked out at 5.5 µM; in series [2] (setting [6]), 5.6 µM. Moreover, the IC90 with M. tuberculosis [3] (setting [7]) was 15 µM. In addition, the figures for the “Intracellular RAW TC50” value with RAW264.7 cells and in the series on RAW264.7 cells (listed as 17) were 1.8 ± 0.5 ^b µM and 1.8 µM, respectively.
Consider `Cc1sc(NC(=O)c2ccc(OC(C)C)cc2)c(C(N)=O)c1C` [TPN-0073559], for which 41 ± 11 µM corresponded to half-maximal inhibition in series [2] (setting [5]) (IC50 at 72 h). Also, the IC50 at 72 h in series [2] (setting [6]) was determined as 49 ± 8.5 µM. Also, in the series with HepG2 cells, the “HepG2 cytotoxicity TC50 Galactose” value is on record as 41 ± 11 ^c µM and the “HepG2 cytotoxicity TC50 Glucose” value is 49 ± 8.5 ^c µM. Further, the IC50 with M. tuberculosis [3] (setting [8]) is above 20 µM. In addition, in the series with M. tuberculosis [3] (setting [9]), the IC90 was above 20 µM. Moreover, the IC90 in the series on M. tuberculosis [3] (setting [7]) was above 20 µM. In addition, in the series on RAW264.7 cells, the “Intracellular activity Cytotoxicity TC50” value is reported as 50 ± 24 ^d µM and the “Intracellular RAW TC50” value is listed as 50 ± 24 ^d µM.
In the case of `Cc1c(Cc2ccccc2)sc(NC(=O)c2ccccc2Cl)c1C(N)=O` [TPN-0073560], the IC50 at 72 h in series [2] (setting [5]) is 42 ± 3.3 µM; in series [2] (setting [6]), above 100 µM. Moreover, the “ratio of TC50glu/TC50gal” value in the series with HepG2 cells (HepG2, glucose vs galactose) is listed as around 4. Further, in the series on HepG2 cells, the “HepG2 cytotoxicity TC50 Galactose” value is 42 ± 3.3 ^c µM. For the same compound, the “HepG2 cytotoxicity TC50 Glucose” value with HepG2 cells is on record as >100 ^b µM. Further, in the series with M. tuberculosis [3] (setting [8]), the IC50 is above 20 µM. The IC90 in the series with M. tuberculosis [3] (setting [9]) and in the series on M. tuberculosis [3] (setting [7]) was above 20 µM each time. For the same compound, the “Intracellular activity Cytotoxicity TC50” value in the series with RAW264.7 cells is reported as 23 ± 4.7 ^d µM. Moreover, in the series with RAW264.7 cells, the “Intracellular RAW TC50” value is given as 23 ± 4.7 ^d µM.
`OCc1cn(-c2ccccc2)nc1-c1ccc(Br)cc1` [TPN-0073563]: the IC50 in the series with M. tuberculosis [1] (Mycobacterium tuberculosis, RAW264.7, 72 h, M. tuberculosis in RAW264.7 cells, MOI 1, 72 h, read-out: Intracellular activity Anti-tubercular activity IC50) is 4.7 ± 1.1 µM. Further, the concentration for half-maximal inhibition (IC50) in the series with M. tuberculosis [1] (setting [4]) was determined as 4.3 ± 1.5 µM. In series [2] (setting [5]), this compound had an IC50 at 72 h of 35 ± 3.7 µM. The IC50 at 72 h in series [2] (setting [6]) was determined as 34 µM. For the same compound, in the series on HepG2 cells, the “HepG2 cytotoxicity TC50 Galactose” value is reported as 34 ± 1.9 ^c µM and the “HepG2 cytotoxicity TC50 Glucose” value is reported as 34 ± 0 ^c µM. Moreover, in the series with RAW264.7 cells, the “Intracellular activity Cytotoxicity TC50” value was 28 ± 7.0 ^e µM and the “Intracellular RAW TC50” value was 28 ± 7.0 ^e µM.
In the case of `OCc1cn(-c2ccc(F)cc2)nc1-c1ccc(Cl)cc1` [TPN-0073583], the IC50 in the series with M. tuberculosis [1] (setting [4]) turned out to be 5.8 ± 0.4 µM. The figures for the IC50 at 72 h in series [2] (setting [5]) and in series [2] (setting [6]) were 57 ± 28 µM and 66 ± 29 µM, respectively. For the same compound, the IC90 in the series on M. tuberculosis [3] (setting [7]) is above 20 µM. The “Intracellular RAW TC50” value in the series with RAW264.7 cells was >100 ^d µM.
